From patent US10100032B2, “Crystalline forms of 3-(4-amino-1-oxo-1,3 dihydro-isoindol-2-yl)-piperidine-2,6-dione” (AMPLIO PHARMA, LLC, priority 2011, dated 2018)

Legend:
[1] = Water slurry analysis of lenalidomide cocrystals; assay type: physicochemical; design: key: If the cocrystal was intact, the cocrystal could be described as less soluble than the stable 3-(4-amino-1-oxo-1,3 dihydro-isoindol-2-yl)-piperidine-2,6-dione form in water (characterized as “stable”); the cocrystal transformation indicates that under those conditions the cocrystal is more soluble than the stable form of the 3-(4-amino-1-oxo-1,3 dihydro-isoindol-2-yl)-piperidine-2,6-dione in water (characterized as “transformed”); conditions: slurry of ~8 to 10 mg of cocrystal in 1 mL of pure water, stirred for 24 hours, solid isolated by filtration and analyzed by XRPD
Method: The solubility of the cocrystals obtained in Examples 1, 2, 3, 4, 5, 6, 7, and 8 were compared to the stable form of the API in pure water by creating a slurry of ˜8 to 10 mg of cocrystal in 1 mL of water. The resulting slurry was stirred for 24 hours. The solid was isolated by filtration and analyzed by XRPD.

[2] = Stability testing of lenalidomide cocrystals; assay type: physicochemical; design: key: the solids remained as the starting cocrystal material, indicating that they are stable under these conditions (“stable”); transformed partially or completely into a different crystalline material, indicating that they are not stable under these conditions (“not stable”); conditions: stored at 40 degrees Celsius and 75% relative humidity (saturated NaCl) for 14 days, XRPD

SMILES | Water slurry result [1] | Stability test result [2]
Nc1cccc2c1CN(C1CCC(=O)NC1=O)C2=O [L-tartaric acid cocrystal of lenalidomide] [3-(4-amino-1-oxo-1,3-dihydroisoindol-2-yl)piperidine-2,6-dione-L-tartaric acid cocrystal] | transformed | not stable
Nc1cccc2c1CN(C1CCC(=O)NC1=O)C2=O (centres unmarked) [ammonium chloride cocrystal of lenalidomide] [3-(4-amino-1-oxo-1,3-dihydroisoindol-2-yl)piperidine-2,6-dione-ammonium chloride cocrystal] | transformed | stable
Nc1cccc2c1CN(C1CCC(=O)NC1=O)C2=O (centres unmarked) [gallic acid cocrystal of lenalidomide, 3-(4-amino-1-oxo-1,3-dihydroisoindol-2-yl)piperidine-2,6-dione-gallic acid cocrystal] | transformed | stable
Nc1cccc2c1CN(C1CCC(=O)NC1=O)C2=O (centres unmarked) [malonic acid cocrystal of lenalidomide, 3-(4-amino-1-oxo-1,3-dihydroisoindol-2-yl)piperidine-2,6-dione-malonic acid cocrystal] | transformed | not stable
Nc1cccc2c1CN(C1CCC(=O)NC1=O)C2=O (centres unmarked) [oxallic acid cocrystal of lenalidomide, 3-(4-amino-1-oxo-1,3-dihydroisoindol-2-yl)piperidine-2,6-dione and oxalic acid cocrystal] | transformed | stable
Nc1cccc2c1CN(C1CCC(=O)NC1=O)C2=O (centres unmarked) [propyl gallate cocrystal of lenalidomide, 3-(4-amino-1-oxo-1,3-dihydroisoindol-2-yl)piperidine-2,6-dione-propylgallate cocrystal] | transformed | not stable
Nc1cccc2c1CN(C1CCC(=O)NC1=O)C2=O (centres unmarked) [urea cocrystal of lenalidomide, 3-(4-amino-1-oxo-1,3-dihydroisoindo-2-yl)piperidine-2,6-dione-urea cocrystal] | transformed | stable
